Experimental data from US20110275559A1, “Long-Acting Y2 and/or Y4 Receptor Agonists” (Novo Nordisk A/S, priority 2008, published 2011).
Where two headings read alike, the source gives them in different places. *1 amine or outer side, *2 acyl side, *3 side chain or, on linkers, in order; H or OH if unused. Where a SMILES comes first, the peptide text is derived from it. Where no end group is shown, it is not given here. Side-chain parts run from the residue outwards. The star is where a group is joined. C20 diacid = O=C(O)CCCCCCCCCCCCCCCCCCC(=O)*; C18 diacid = O=C(O)CCCCCCCCCCCCCCCCC(=O)*; γGlu = O=C(O)[C@H](CCC(=O)[*:2])N[*:1]; Trx = NC[C@H]1CC[C@H](C(=O)O)CC1; AEEA = NCCOCCOCC(=O)O

What was measured:
[1] = biological target: T1, Y2 receptor (Homo sapiens, UniProt P49146); test: Y2 receptor ACTOne based FLIPR assay (cAMP biosensor); format: cell-based
T1 construct: host or cells: ACTOne HEK-293 cells
T1 sequence (P49146 1-381): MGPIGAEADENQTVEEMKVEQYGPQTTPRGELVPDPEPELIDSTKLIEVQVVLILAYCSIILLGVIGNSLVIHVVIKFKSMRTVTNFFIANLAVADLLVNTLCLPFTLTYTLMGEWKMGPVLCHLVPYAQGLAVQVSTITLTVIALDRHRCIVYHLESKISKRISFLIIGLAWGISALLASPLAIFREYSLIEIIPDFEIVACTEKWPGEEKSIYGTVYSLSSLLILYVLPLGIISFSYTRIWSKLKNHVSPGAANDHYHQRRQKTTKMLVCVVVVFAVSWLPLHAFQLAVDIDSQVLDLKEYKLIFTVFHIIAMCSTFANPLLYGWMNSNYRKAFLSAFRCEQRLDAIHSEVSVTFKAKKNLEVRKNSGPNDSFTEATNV

[2] = biological target: T2, Y4 receptor (Homo sapiens, UniProt P50391); test: Y4 receptor ACTOne based FLIPR assay (cAMP biosensor); format: cell-based
T2 construct: host or cells: ACTOne HEK-293 cells
T2 sequence (P50391 whole entry): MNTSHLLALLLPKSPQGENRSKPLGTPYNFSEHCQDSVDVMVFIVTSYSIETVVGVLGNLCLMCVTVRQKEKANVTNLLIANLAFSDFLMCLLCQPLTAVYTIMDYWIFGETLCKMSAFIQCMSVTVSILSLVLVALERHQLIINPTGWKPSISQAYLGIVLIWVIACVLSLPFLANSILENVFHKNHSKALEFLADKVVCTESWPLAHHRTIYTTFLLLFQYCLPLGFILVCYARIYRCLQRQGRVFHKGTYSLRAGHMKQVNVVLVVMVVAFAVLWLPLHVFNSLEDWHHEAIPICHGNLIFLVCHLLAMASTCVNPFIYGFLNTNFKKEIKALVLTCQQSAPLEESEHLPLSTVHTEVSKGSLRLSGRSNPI

[3] = in vivo; details: Göttingen, minipig, iv
In short: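 Catheterised mini-pigs received compound i.v. at 10 nmol/kg in pH 4.0 phosphate/NaCl/tween vehicle, or alternatively i.v. or s.c. at 1–30 nmol/kg in pH 8.0 K2HPO4/tween. Stabilised plasma was sampled up to 13 days and assayed by LC-MS (LLOQ 2 nM). Half-life came from non-compartmental analysis of individual animal profiles.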

[4] = biological target: T3, Y2 receptor (UniProt P49146 1-381, limits assumed); test: cell-based or functional assay
T3 sequence (looked up): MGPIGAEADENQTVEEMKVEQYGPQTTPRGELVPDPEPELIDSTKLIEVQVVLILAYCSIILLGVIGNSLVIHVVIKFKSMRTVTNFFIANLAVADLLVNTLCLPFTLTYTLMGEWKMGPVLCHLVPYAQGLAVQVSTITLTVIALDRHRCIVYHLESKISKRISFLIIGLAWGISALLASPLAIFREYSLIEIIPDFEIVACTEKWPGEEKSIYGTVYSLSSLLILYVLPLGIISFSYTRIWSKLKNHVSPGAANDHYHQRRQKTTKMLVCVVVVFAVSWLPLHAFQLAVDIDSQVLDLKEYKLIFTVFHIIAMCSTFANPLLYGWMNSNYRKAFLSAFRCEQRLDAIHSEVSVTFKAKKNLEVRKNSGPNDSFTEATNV

[5] = Table 2, PP analogues, ACTOne HEK-293 cells, read-out: Y2 cAMP EC50
[6] = Table 2, PP analogues, ACTOne HEK-293 cells, read-out: Y4 cAMP EC50

Q: With `CC[C@H](C)[C@H](NC(=O)[C@H](Cc1ccc(O)cc1)NC(=O)[C@H](CCCNC(=N)N)NC(=O)[C@H](CCCNC(=N)N)NC(=O)[C@H](CC(C)C)NC(=O)[C@H](CC(=O)O)NC(=O)[C@H](C)NC(=O)[C@H](C)NC(=O)[C@H](Cc1ccc(O)cc1)NC(=O)[C@H](CCC(N)=O)NC(=O)[C@H](C)NC(=O)[C@H](CC(C)C)NC(=O)[C@H](CCC(N)=O)NC(=O)[C@H](CCC(=O)O)NC(=O)[C@@H]1CCCN1C(=O)[C@@H](NC(=O)[C@H](C)NC(=O)[C@H](CC(N)=O)NC(=O)[C@H](CC(=O)O)NC(=O)CNC(=O)[C@@H]1CCCN1C(=O)[C@H](Cc1ccc(O)cc1)NC(=O)[C@@H](NC(=O)[C@@H]1CCCN1C(=O)[C@H](CCC(=O)O)NC(=O)[C@H](CC(C)C)NC(=O)[C@@H]1CCCN1)C(C)C)[C@@H](C)O)C(=O)N[C@@H](CC(N)=O)C(=O)N[C@@H](CC(C)C)C(=O)N[C@@H](CC(C)C)C(=O)N[C@H](C(=O)N[C@@H](CCCNC(=N)N)C(=O)N1CCC[C@H]1C(=O)N[C@@H](CCCCNC(=O)COCCOCCNC(=O)COCCOCCNC(=O)CC[C@H](NC(=O)[C@H]1CC[C@H](CNC(=O)CCCCCCCCCCCCCCCCCCC(=O)O)CC1)C(=O)O)C(=O)N[C@@H](Cc1ccc(O)cc1)C(N)=O)[C@@H](C)O` [SEQ ID NO: 48, N-epsilon35-[2-(2-{2-[2-(2-{2-[(S)-4-Carboxy-4-({trans-4-[(19-carboxynonadecanoylamino)methyl]cyclohexanecarbonyl}amino)butyrylamino]-ethoxy}ethoxy)acetylamino]ethoxy}ethoxy)acetyl][Leu17,Leu30,Lys35]hPP2-36] (H-PLEPVYPGDNATPEQLAQYAADLRRYINLLTRPK([AEEA-AEEA-γGlu-Trx-C20 diacid])Y-NH2) as the molecule, how does the EC50 [1, 5] read?
A: The EC50 was greater than 1000 nM.

Q: And the EC50 [2, 6]?
A: The EC50 was greater than 1000 nM.

Q: And the half-life ([3]; 10 nmol/kg)?
A: Its half-life is 93 h.

Q: For `CC[C@H](C)[C@H](NC(=O)[C@H](Cc1ccc(O)cc1)NC(=O)[C@H](CCCNC(=N)N)NC(=O)[C@H](CCCCNC(=O)COCCOCCNC(=O)COCCOCCNC(=O)CC[C@H](NC(=O)[C@H]1CC[C@H](CNC(=O)CCCCCCCCCCCCCCCCCCC(=O)O)CC1)C(=O)O)NC(=O)[C@H](CC(C)C)NC(=O)[C@H](CC(=O)O)NC(=O)[C@H](C)NC(=O)[C@H](C)NC(=O)[C@H](Cc1ccc(O)cc1)NC(=O)[C@H](CCC(N)=O)NC(=O)[C@H](C)NC(=O)[C@H](CC(C)C)NC(=O)[C@H](CCC(N)=O)NC(=O)[C@H](CCC(=O)O)NC(=O)[C@@H]1CCCN1C(=O)[C@@H](NC(=O)[C@H](C)NC(=O)[C@H](CC(N)=O)NC(=O)[C@H](CC(=O)O)NC(=O)CNC(=O)[C@@H]1CCCN1C(=O)[C@H](Cc1ccc(O)cc1)NC(=O)[C@@H](NC(=O)[C@@H]1CCCN1C(=O)[C@H](CCC(=O)O)NC(=O)[C@H](CC(C)C)NC(=O)[C@@H]1CCCN1)C(C)C)[C@@H](C)O)C(=O)N[C@@H](CC(N)=O)C(=O)N[C@@H](CC(C)C)C(=O)N[C@@H](CC(C)C)C(=O)N[C@H](C(=O)N[C@@H](CCCNC(=N)N)C(=O)N1CCC[C@H]1C(=O)N[C@@H](CCCNC(=N)N)C(=O)N[C@@H](Cc1ccc(O)cc1)C(N)=O)[C@@H](C)O` [SEQ ID NO: 50, N-epsilon25-[2-(2-{2-[2-(2-{2-[(S)-4-Carboxy-4-({trans-4-[(19-carboxynonadecanoylamino)methyl]cyclohexanecarbonyl}amino)butyrylamino]-ethoxy}ethoxy)acetylamino]ethoxy}ethoxy)acetyl][Leu17,Lys25,Leu30]hPP2-36] (H-PLEPVYPGDNATPEQLAQYAADLK([AEEA-AEEA-γGlu-Trx-C20 diacid])RYINLLTRPRY-NH2), which EC50 [1, 5] is on record?
A: The EC50 was greater than 1000 nM.

Q: What about the EC50 [2, 6] of the same molecule?
A: The EC50 was greater than 1000 nM.

Q: What about the half-life ([3]; 10 nmol/kg) of the same molecule?
A: The half-life was 82 h.

Q: For `CC[C@H](C)[C@H](NC(=O)[C@H](Cc1ccc(O)cc1)NC(=O)[C@H](CCCNC(=N)N)NC(=O)[C@H](CCCNC(=N)N)NC(=O)[C@H](CC(C)C)NC(=O)[C@H](CC(=O)O)NC(=O)[C@H](C)NC(=O)[C@H](C)NC(=O)[C@H](Cc1ccc(O)cc1)NC(=O)[C@H](CCC(N)=O)NC(=O)[C@H](C)NC(=O)[C@H](CC(C)C)NC(=O)[C@H](CCC(N)=O)NC(=O)[C@H](CCC(=O)O)NC(=O)[C@@H]1CCCN1C(=O)[C@@H](NC(=O)[C@H](C)NC(=O)[C@H](CC(N)=O)NC(=O)[C@H](CC(=O)O)NC(=O)CNC(=O)[C@@H]1CCCN1C(=O)[C@H](Cc1ccc(O)cc1)NC(=O)[C@@H](NC(=O)[C@@H]1CCCN1C(=O)[C@H](CCC(=O)O)NC(=O)[C@H](CC(C)C)NC(=O)[C@@H]1CCCN1C(=O)COCCOCCNC(=O)COCCOCCNC(=O)CC[C@H](NC(=O)CCCCCCCCCCCCCCCCC(=O)O)C(=O)O)C(C)C)[C@@H](C)O)C(=O)N[C@@H](CC(N)=O)C(=O)N[C@@H](CC(C)C)C(=O)N[C@@H](CC(C)C)C(=O)N[C@H](C(=O)N[C@@H](CCCNC(=N)N)C(=O)N1CCC[C@H]1C(=O)N[C@@H](CCCNC(=N)N)C(=O)N[C@@H](Cc1ccc(O)cc1)C(N)=O)[C@@H](C)O` [SEQ ID NO: 55, N-alfa-[2-(2-{2-[2-(2-{2-[(S)-4-Carboxy-4-(17-carboxyheptadecanoylamino)butyrylamino]ethoxy}ethoxy)acetylamino]-ethoxy}ethoxy)acetyl][Leu17,Leu30]hPP2-36] ({C18 diacid-γGlu-AEEA-AEEA}-PLEPVYPGDNATPEQLAQYAADLRRYINLLTRPRY-NH2; C-terminus assumed), which EC50 [1, 5] is on record?
A: The EC50 was greater than 1000 nM.

Q: And the EC50 [2, 6]?
A: The EC50 was 1 nM.

Q: And the half-life ([3]; 7 nmol/kg)?
A: Its half-life is 29 h.

Q: Which results are given for `CC[C@H](C)[C@H](NC(=O)[C@H](Cc1ccc(O)cc1)NC(=O)[C@H](CCCNC(=N)N)NC(=O)[C@H](CCCNC(=N)N)NC(=O)[C@H](CC(C)C)NC(=O)[C@H](CC(=O)O)NC(=O)[C@H](C)NC(=O)[C@H](C)NC(=O)[C@H](Cc1ccc(O)cc1)NC(=O)[C@H](CCC(N)=O)NC(=O)[C@H](C)NC(=O)[C@H](CC(C)C)NC(=O)[C@H](CCC(N)=O)NC(=O)[C@H](CCC(=O)O)NC(=O)[C@@H]1CCCN1C(=O)[C@@H](NC(=O)[C@H](C)NC(=O)[C@H](CC(N)=O)NC(=O)[C@H](CC(=O)O)NC(=O)CNC(=O)[C@@H]1CCCN1C(=O)[C@H](Cc1ccc(O)cc1)NC(=O)[C@@H](NC(=O)[C@@H]1CCCN1C(=O)[C@H](CCC(=O)O)NC(=O)[C@H](CC(C)C)NC(=O)[C@@H]1CCCN1C(=O)COCCOCCNC(=O)COCCOCCNC(=O)CC[C@H](NC(=O)[C@H]1CC[C@H](CNC(=O)CCCCCCCCCCCCCCCCCCC(=O)O)CC1)C(=O)O)C(C)C)[C@@H](C)O)C(=O)N[C@@H](CC(N)=O)C(=O)N[C@@H](CC(C)C)C(=O)N[C@@H](CC(C)C)C(=O)N[C@H](C(=O)N[C@@H](CCCNC(=N)N)C(=O)N1CCC[C@H]1C(=O)N[C@@H](CCCNC(=N)N)C(=O)N[C@@H](Cc1ccc(O)cc1)C(N)=O)[C@@H](C)O` [SEQ ID NO: 56, N-alfa-[2-(2-{2-[2-(2-{2-[(S)-4-Carboxy-4-({trans-4-[(19-carboxynonadecanoylamino)methyl]cyclohexanecarbonyl}amino)butyrylamino]-ethoxy}ethoxy)acetylamino]ethoxy}ethoxy)acetyl][Leu17,Leu30]hPP2-36] ({C20 diacid-Trx-γGlu-AEEA-AEEA}-PLEPVYPGDNATPEQLAQYAADLRRYINLLTRPRY-NH2; C-terminus assumed)?
A: EC50 [1]: > 1000 nM; EC50 [2]: 4 nM; half-life ([3]; in vivo, 6 nmol/kg): 22 h

Q: Which “Y2 cAMP EC50” value [4] does the source give for {C20 diacid-Trx-γGlu-AEEA-AEEA}-NRYYASLRHYLNLVTRQRY (ends and bridges not checked) here?
A: Its value is 97 nM.
